Experimental data taken from patent publication US12502403B2, “Tafoxiparin for the treatment of preeclampsia” (DILAFOR AB, priority 2020, dated 2025).

Tests used:
subcutaneous arteries [1] = test: Myograph: angiotensin II-induced contraction of subcutaneous artery segments after pre-treatment and placental vesicles; details: for contractile effect of AngII in the presence of PE: 10 μg/ml pre-incubation; for AUC / AUC/AUC (PE) % / % contractile change: AngII; for % contractile change: vs PE; for Emax [%] AngII: relative to 60 mM potassium contraction; for logEC50 AngII: EC50 of agonist AngII; for effect on Ang II mediated contraction with control P vesicles: vs vesicles only;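 on all read-outs here: wire myograph tension of human abdominal subcutaneous artery rings from Caesarean deliveries at 37 °C, 30 min pre-treatment, vesicles 30 min, then cumulative angiotensin II 10^−12 to 10^−6 M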
Source text: (§1) In a myograph model, arteries from subcutaneous tissue of women undergoing Caesarian section were used. The contractile effect of arteries comprising vesicles derived from placentas from pre-eclamptic women was compared with the contractile effect of arteries comprising vesicles derived from placentas from non-preeclamptic women. […] The Low Molecular Weight Heparin (LMWH) tinzaparin (Innohep®, Leo Pharma Denmark) was used as a comparator.
(§2) Subcutaneous arteries were removed from the subcutaneous fat of the abdomen during Caesarean section and immediately put in cold DMEM-medium. Arteries were dissected in cold Na-Krebs buffer at a pH of 7.3-7.4 and cut into ring segments with a length of 1-2 mm as previously shown. The sections were mounted on two 40 μm-diameter wires and connected to a device sensitive to vascular tension. The stretching force property of the arteries were recorded with Mulvany-Halpern myographs. The mounted arterial segments were immersed into temperature-controlled (+37° C.) tissue baths containing bicarbonate-based buffer solution gassed with carbogen to obtain a pH of 7.3-7.4. Each segment was stretched to 90% of the normal internal circumference, which is the size each segment would have in a transmural pressure of 100 mm Hg. The contractile capacity of each artery segment was checked by exposure to 60 mM KCl buffer solution twice or three times to study viability. After each the bath was washed and the tone returned to baseline. When stable, different molecules or receptor agonists are added to the baths in concentration-dependent manner to observe the vasomotor responses of the vessels.
(§3) The artery segments were studied by exposure to angiotensin II or endothelin 1 in cumulative concentrations of the agonists. […] In some experiments, 30 minutes after adding vesicles to the tissue baths concentration-contraction curves were obtained by cumulative application of angiotensin II (angiotensin 1 and 2 receptor agonist, concentration range 10^−12 to 10^−6 M). After washing and the tension returning to base line, agonists are added. After washing and the tension returning to base line endothelin 1 was added (endothelin A and B receptor agonist, concentration range 10^−11 to 10^−7 M).
(§4) After 30 minutes, non-preeclampsia vesicles as control (P) or pre-eclampsia (PE) vesicles were added at a concentration of 200 μg (protein concentration 40 μg/mL).
(§5) 30 minutes after adding vesicles to the tissue baths, concentration-contraction curves were obtained by cumulative application of angiotensin II (A9525 Sigma-Aldrich Angiotensin II human, powder CAS Number 4474-91-3 dissolved in sodium chloride to a concentration of 10^−3 M) and used in the concentration range 10^−12 to 10^−6 M. After wash-out and the tension had returned to base line, ET-1 (ALX-155-001, Enzo Life Sciences) was added and recorded (endothelin A and B receptor agonist, concentration range 10^−11 to 10^−7 M).

subcutaneous arteries [2] = test: Myograph: endothelial function (relaxation to substance P after potassium pre-contraction); assay type: cell-based, human
Protocol: In some experiments the endothelial function was tested by pre-contraction the vessels with 30 mM potassium buffer, giving a stable tone and endothelium function evaluated by exposure to substance P (10^−6 or 10^−5 M).

subcutaneous arteries [3] = test: Myograph: endothelin 1 (ET-1)-induced contraction of subcutaneous artery segments after pre-treatment and placental vesicles; assay type: cell-based, human; details: for contraction to ET-1 / AUC / AUC/AUC (PE) % / % contractile change: Example 5, 10 μg/ml pre-incubation then PE vesicles; for AUC / AUC/AUC (PE) % / % contractile change: ET-1, pooled from five patients; for % contractile change: vs PE; for reduction of contraction induced with ET-1: vs PE vesicles only; for Emax [%] ET-1: relative to 60 mM potassium contraction; for logEC50 ET-1: EC50 of agonist ET-1; for effect on ET-1 mediated contraction with control P vesicles: vs vesicles only
Source text: as §1, §2, §3, §4, §5

[4] = Example 3, 10 μg/ml pre-incubation then PE vesicles, pooled from four patients
[5] = Example 4, 100 μg/ml pre-incubation then PE vesicles
[6] = Example 4, 100 μg/ml pre-incubation then PE vesicles, pooled from five patients
[7] = patient 14, 10 μg/ml before PE-vesicles, vs PE vesicles only
[8] = patient 14, 10 μg/ml pre-treatment then PE vesicles
[9] = patient 14, drug only, no vesicles
[10] = patient 14, pre-treatment then P vesicles
[11] = patient 14, pre-treatment then PE vesicles
[12] = patient 14, control (P) vesicles
[13] = patient 14, 10 μg/ml before PE-vesicles
[14] = patient 13, 10 μg/ml pre-treatment then PE vesicles
[15] = patient 13, pre-treatment then P vesicles
[16] = patient 13, control (P) vesicles
[17] = patient 13, drug only, no vesicles

## tafoxiparin
Subcutaneous arteries [1]; Example 3
  contractile effect of AngII in the presence of PE: affect the contractile effect of AngII
Subcutaneous arteries [1]; [4]
  AUC: 160.5
  AUC/AUC (PE) %: 68.5%
  % contractile change: −31.5%
Subcutaneous arteries [1]; [5]
  AngII induced contraction: significantly decreased
Subcutaneous arteries [1]; [6]
  AUC: 306.5
  AUC/AUC (PE) %: 70.8%
  % contractile change: −29%
Subcutaneous arteries [1]; [7]
  reduction of contraction induced with angiotensin II: 79%
Subcutaneous arteries [1]; [8]
  Emax [%] AngII: 27%
Subcutaneous arteries [1]; [9]
  logEC50 AngII: 10.2
  Emax [%] AngII: 101%
Subcutaneous arteries [1]; [10]
  logEC50 AngII: 9.8
  Emax [%] AngII: 73%
Subcutaneous arteries [1]; [11]
  logEC50 AngII: 9.4
Subcutaneous arteries [1]; [12]
  effect on Ang II mediated contraction with control P vesicles: little or no effect
Subcutaneous arteries [2]; [9]
  Endothelial function [%]: 85%
Subcutaneous arteries [2]; [10]
  Endothelial function [%]: 22%
Subcutaneous arteries [2]; [11]
  Endothelial function [%]: 67%
Subcutaneous arteries [3]
  contraction to ET-1: significantly lower contraction
  AUC: 193.1
  AUC/AUC (PE) %: 61.8%
  % contractile change: −38%
Subcutaneous arteries [3]; [13]
  reduction of contraction induced with ET-1: 56%
Subcutaneous arteries [3]; [8]
  Emax [%] ET-1: 77%
Subcutaneous arteries [3]; [9]
  logEC50 ET-1: 9.9
  Emax [%] ET-1: 180%
Subcutaneous arteries [3]; [10]
  logEC50 ET-1: 7.7
  Emax [%] ET-1: 105%
Subcutaneous arteries [3]; [11]
  logEC50 ET-1: 6.9
Subcutaneous arteries [3]; [12]
  effect on ET-1 mediated contraction with control P vesicles: little or no effect

## tinzaparin
Subcutaneous arteries [1]; Example 3
  contractile effect of AngII in the presence of PE: affect the contractile response of AngII
Subcutaneous arteries [1]; [4]
  AUC: 170.5
  AUC/AUC (PE) %: 72.7%
  % contractile change: −27.3%
Subcutaneous arteries [1]; [5]
  AngII induced contraction: significantly decreased
Subcutaneous arteries [1]; [6]
  AUC: 299.6
  AUC/AUC (PE) %: 69.3%
  % contractile change: −31%
Subcutaneous arteries [1]; patient 13, 10 μg/ml before PE-vesicles, vs PE vesicles only
  reduction of maximum contraction induced by angiotensin II: 23%
Subcutaneous arteries [1]; [14]
  Emax [%] AngII: 75%
Subcutaneous arteries [1]; [15]
  logEC50 AngII: 10.8
Subcutaneous arteries [1]; [16]
  effect on contraction in the presence of control vesicles (AngII): did not appear to have any reducing effect
Subcutaneous arteries [1]; [17]
  Emax [%] AngII: 69%
Subcutaneous arteries [1]; patient 13, pre-treatment then P (non-PE) vesicles
  Emax [%] AngII: 103%
Subcutaneous arteries [1]; [7]
  reduction of contraction induced with angiotensin II: 14%
Subcutaneous arteries [1]; [8]
  Emax [%] AngII: 109%
Subcutaneous arteries [1]; [10]
  logEC50 AngII: 10.0
  Emax [%] AngII: 135%
Subcutaneous arteries [1]; [11]
  logEC50 AngII: 10.0
Subcutaneous arteries [1]; [12]
  effect on Ang II mediated contraction with control P vesicles: increased contraction
Subcutaneous arteries [2]; [17]
  Endothelial function [%]: 96%
Subcutaneous arteries [2]; patient 13, pre-treatment then PE vesicles
  Endothelial function [%]: 119.95%
Subcutaneous arteries [2]; patient 13, pre-treatment then non-preeclampsia (P) vesicles
  Endothelial function [%]: 69.11%
Subcutaneous arteries [2]; [10]
  Endothelial function [%]: 22%
Subcutaneous arteries [2]; [11]
  Endothelial function [%]: 1%
Subcutaneous arteries [3]
  contraction to ET-1: significantly lower contraction
  AUC: 259.5
  AUC/AUC (PE) %: 83.1%
  % contractile change: −17%
Subcutaneous arteries [3]; patient 13, 10 μg/ml before PE-vesicles
  contraction induced with ET-1 (the Emax) compared with PE vesicles only: the same
Subcutaneous arteries [3]; patient 13, 10 μg/ml before PE-vesicles, extrapolated
  reduction of log EC50 (ET-1): 35%
Subcutaneous arteries [3]; [14]
  Emax [%] ET-1: 143%
Subcutaneous arteries [3]; [17]
  logEC50 ET-1: 8.5
  Emax [%] ET-1: 144%
Subcutaneous arteries [3]; [15]
  logEC50 ET-1: 8.8
  Emax [%] ET-1: 166%
Subcutaneous arteries [3]; patient 13, pre-treatment then PE vesicles (extrapolated)
  logEC50 ET-1: 5.7
Subcutaneous arteries [3]; [16]
  effect on contraction in the presence of control vesicles (ET-1): did not appear to have any reducing effect
Subcutaneous arteries [3]; [13]
  reduction of contraction induced with ET-1: 15%
Subcutaneous arteries [3]; [8]
  Emax [%] ET-1: 147%
Subcutaneous arteries [3]; [10]
  logEC50 ET-1: 9.4
  Emax [%] ET-1: 197%
Subcutaneous arteries [3]; [11]
  logEC50 ET-1: 9.9
Subcutaneous arteries [3]; [12]
  effect on ET-1 mediated contraction with control P vesicles: increased contraction
